The text below walks through data of patent publication US20250109139A1, “TRICYCLIC COMPOUND, AND PREPARATION METHOD THEREFOR AND USE THEREOF” (SHANGHAITECH UNIVERSITY, priority 2022, published 2025).

The target of data set [1] is T1, dopamine D2 receptors (Homo sapiens (Human), UniProt P14416). Briefly: Dopamine D2 receptor radioligand competition binding assay ([3H]-Methylspiperone). The settings on record: [3H]-Methylspiperone 0.3 to 0.5 nM, 293T membranes. Put shortly: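 Membranes from cells transfected with human D2 receptor, PEI-mediated; competition with [3H]-methylspiperone for 2 h at room temperature in the dark.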
T1 sequence (P14416 whole entry): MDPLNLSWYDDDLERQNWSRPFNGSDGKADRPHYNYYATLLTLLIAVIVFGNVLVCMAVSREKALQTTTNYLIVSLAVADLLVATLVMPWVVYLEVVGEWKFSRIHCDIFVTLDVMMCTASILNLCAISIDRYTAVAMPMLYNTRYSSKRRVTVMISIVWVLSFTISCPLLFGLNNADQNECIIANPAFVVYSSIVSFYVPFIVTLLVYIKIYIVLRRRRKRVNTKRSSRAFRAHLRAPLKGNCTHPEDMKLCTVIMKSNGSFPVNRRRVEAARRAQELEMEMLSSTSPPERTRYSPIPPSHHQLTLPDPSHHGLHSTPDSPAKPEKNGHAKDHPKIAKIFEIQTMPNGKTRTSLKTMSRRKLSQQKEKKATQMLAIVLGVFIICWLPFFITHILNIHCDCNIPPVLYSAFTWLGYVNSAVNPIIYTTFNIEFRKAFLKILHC
Background: In a radioligand displacement assay an active substance lowers the binding of a labelled ligand.

Data set [2] addresses T1, dopamine D2 receptors. In words: Dopamine D2 receptor β-arrestin2 BRET (recruitment). Format: cell-based. The following applies: for Emax: relative to endogenous ligand dopamine, read-out: β-arrestin2 BRET Emax % ± SEM. The procedure, abridged:
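G-protein assay: cells co-transfected with D2 receptor, Gαi1-Rluc, Gβ3 and Gγ9-GFP (1 μg each); β-arrestin2 assay: D2-Rluc, GRK2 and GFP2-β-arrestin2 co-transfected. Cells were reseeded after one day and tested on day three. Drug dilution series were added in duplicate with coelenterazine 400a (5 μM final), and the BRET signal was read.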

Data set [3] can be described thus: Pharmacokinetics in SD rats, single dose intragastric and intravenous. Format: in vivo. The settings on record: for Vd / AUC(0-t) / clearance / half-life / MRT / Cmax / bioavailability / Tmax: male, rat, plasma; for Vd: read-out: Apparent volume of distribution Vdss; for AUC(0-t): read-out: Area under the drug-time curve AUC0-t; for clearance: read-out: Clearance CL; for half-life: read-out: Elimination half-life t1/2 (converted); for MRT: read-out: Mean residence time MRT; for bioavailability: read-out: Bioavailability F; for Tmax: read-out: Time to peak concentration tmax. On the procedure:
Testing of pharmacokinetic properties of compounds administered in a single dose to SD rats by intragastric administration and intravenous injection
After the compound was administered in a single dose to male SD rats, blood samples were collected at different time points. The concentration of the compound in the plasma of the rats was determined by LC-MS/MS and the relevant pharmacokinetic parameters were calculated to investigate the pharmacokinetics of the compound in rats.
Male SD rats were provided by Suzhou JOINN Laboratories Co., Ltd. SD rats were fasted with free access to water for 12 to 14 hours one day before administration, and were fed 4 hours after administration.
For each compound, the […] were divided into two groups: intravenous injection and intragastric administration, with 3 rats in each group. For both intravenous injection (administered at a dose of 3 mg/kg and a concentration of 0.6 mL/kg) and intragastric administration (administered at a dose of 10 mg/kg and a concentration of 1 mL/kg), 5% DMSO+5% Solutol+90% saline was used as the vehicle.
Sample collection: 0.10 mL of blood was collected from the orbit of each animal in IV/PO groups each time at 5 minutes, 15 minutes, 30 minutes, 1 hour, 2 hours, 4 hours, 6 hours, 8 hours, and 24 hours after administration of the test compound, and anticoagulated with EDTA-K2. Blood samples were placed on ice after collection, and plasma was separated by centrifugation within 30 minutes (centrifugation conditions: 5000 rpm, 10 minutes, 4° C.). The collected plasma was stored at −80° C. before analysis.
Data processing: The data acquisition and control system software was Analyst 1.5.1 software (Applied Biosystem). The peak integration method of chromatographic samples was automatic integration; the ratio of the peak area of the sample to the peak area of the internal standard was used as an index for regression with the concentration of the sample. […] Pharmacokinetic parameters were analyzed with a non-compartmental model using WinNonlin Professional v6.3 (Pharsight, USA). Cmax was the measured maximum plasma concentration, the area under the plasma concentration-time curve AUC(0→t) was calculated by the trapezoidal method, and tmax was the time to peak plasma concentration after administration. Experimental data were presented as “Mean±SD” (n≥3) or “Mean” (n=2).

[4] abbreviates: read-out: Affinity pKi ± SEM (converted).
Setting [5] is: read-out: β-arrestin2 BRET pEC50 ± SEM (converted).
Where [6] appears, read: unit printed only in Cariprazine cell, read-out: β-arrestin2 BRET EC50.
Where [7] appears, read: intravenous injection, 3 mg/kg, read-out: Peak drug concentration C0 or Cmax.
Setting [8] is: oral administration, 10 mg/kg, read-out: Peak drug concentration Cmax.

Where two headings read alike, the source gives them in different places.

The term Emax denotes the size of the effect at its maximum, as opposed to the concentration needed. Broadly, the clearance is the volume of plasma or blood freed of the substance per unit of time. As usually defined, the MRT is a mean duration of stay, worked out from the concentration-time curve.

As to `COc1cccc2c1cc1n2CCN(CCCCOc2ccc3c(c2)NC(=O)CC3)C1` [I-C2, 7-(4-(9-methoxy-3,4-dihydropyrazino[1,2-a]indol-2(1H)-yl)butoxy)-3,4-dihydroquinolin-2(1H)-one], in data set [1] (read-out: Affinity Ki), the Ki is 221 nM. Further, the Ki in data set [1] (setting [4]) was 61.7 nM. In addition, the EC50 in data set [2] (setting [5]) is 66.1 nM. Also, in data set [2], the Emax is 115%. Moreover, the EC50 in data set [2] (setting [6]) is 122 nM. In data set [3] (intravenous injection, 3 mg/kg), the Vd stood at 1.51 ± 0.3 L/kg, the AUC(0-t) was found to be 2790 ± 842 ng·h/mL, the clearance is 19.1 ± 6.8 mL/min/kg and the half-life was 1.79 ± 1.1 h. Further, the MRT in data set [3] (intravenous injection, 3 mg/kg) was found to be 1.38 ± 0.3 h. For the same compound, in data set [3] (setting [7]), the Cmax was found to be 3340 ± 629 ng/mL. For the same compound, in data set [3] (oral administration, 10 mg/kg), the AUC(0-t) was 7730 ± 467 ng·h/mL, the bioavailability stood at 82.4 ± 5%, the half-life is 4.09 ± 1.6 h and the MRT is 5.46 ± 0.09 h. In addition, the Tmax in data set [3] (oral administration, 10 mg/kg) is 0.33 ± 0.14 h. Also, the Cmax in data set [3] (setting [8]) amounted to 1310 ± 701 ng/mL.
With `COc1cccc2c3c(oc12)CN(CCCCOc1ccc2ccc(=O)[nH]c2c1)CC3` [I-A1, 7-(4-(8-methoxy-3,4-dihydrobenzofuro[2,3-c]pyridin-2(1H)-yl)butoxy)quinolin-2(1H)-one], in data set [1], the “Affinity pKi ± SEM” value is recorded as “(7.07 ± 0.02)”. Moreover, in data set [1] (read-out: Affinity Ki), the Ki worked out at 84.4 nM. In addition, the “β-arrestin2 BRET pEC50 ± SEM” value in data set [2] is “(7.62 ± 0.17)”. The EC50 in data set [2] (setting [6]) was found to be 27.7 nM. In data set [3] (intravenous injection, 3 mg/kg), the “Area under the drug-time curve AUC0-t” value came to 2991 ± 212 ng·h/mL, the “Clearance CL” value came to 16.7 ± 1.12 mL/min/kg and the “Elimination half-life t1/2” value came to 3.48 ± 0.1 h. Further, in data set [3] (setting [7]), the Cmax was found to be 1330 ± 117 ng/mL. In data set [3] (oral administration, 10 mg/kg), the half-life is 3.91 ± 0.3 h, the “Area under the drug-time curve AUC0-t” value is 8916 ± 3642 ng·h/mL, the “Bioavailability F” value is 88.8 ± 36% and the “Peak drug concentration Cmax” value is on record as 1555 ± 362 ng/mL. The “Time to peak concentration tmax” value in data set [3] (oral administration, 10 mg/kg) turned out to be 0.50 ± 0 h.
Turning to `COc1cccc2c3c([nH]c12)CN(CC[C@H]1CC[C@H](NC(=O)N(C)C)CC1)CC3` [I-B7, 3-(trans-4-(2-(8-methoxy-1,3,4,9-tetrahydro-2H-pyrido[3,4-b]indol-2-yl)ethyl)cyclohexyl)-1,1-dimethylurea], the Ki in data set [1] (read-out: Affinity Ki) stood at 2.71 nM. The Ki in data set [1] (setting [4]) is 1.82 nM. Moreover, in data set [2] (setting [5]), the EC50 is 0.107 nM. Moreover, the Emax in data set [2] amounted to 44%. For the same compound, the EC50 in data set [2] (setting [6]) was 0.24 nM. For the same compound, in data set [3] (intravenous injection, 3 mg/kg), the Vd came to 7.56 ± 0.4 L/kg, the AUC(0-t) is 2350 ± 127 ng·h/mL, the clearance amounted to 21 ± 1.2 mL/min/kg and the half-life was 3.91 ± 0.3 h. In addition, the MRT in data set [3] (intravenous injection, 3 mg/kg) was found to be 6.01 ± 0.2 h. In data set [3] (setting [7]), the Cmax was determined as 330 ± 61 ng/mL. For the same compound, in data set [3] (oral administration, 10 mg/kg), the AUC(0-t) was determined as 10200 ± 945 ng·h/mL, the bioavailability was 128 ± 12%, the half-life was 5.12 ± 0.7 h and the MRT was determined as 8.08 ± 0.23 h. In addition, the Tmax in data set [3] (oral administration, 10 mg/kg) is 3.17 ± 4 h. Also, in data set [3] (setting [8]), the Cmax came out at 734 ± 34 ng/mL.
For `COc1cccc2c1cc1n2CCN(CCCCOc2ccc3ccc(=O)[nH]c3c2)C1` [I-C1, 7-(4-(9-methoxy-3,4-dihydropyrazino[1,2-a]indol-2(1H)-yl)butoxy)quinolin-2(1H)-one], the Ki in data set [1] (read-out: Affinity Ki) came to 401 nM. The Ki in data set [1] (setting [4]) was 269 nM. In addition, the Emax in data set [2] is 117%. Moreover, in data set [2] (setting [6]), the EC50 was 220 nM. In addition, in data set [3] (intravenous injection, 3 mg/kg), the Vd stood at 2.16 ± 0.1 L/kg, the AUC(0-t) stood at 4970 ± 751 ng·h/mL, the clearance is 10.1 ± 1.4 mL/min/kg and the half-life was 3.63 ± 0.7 h. Besides, the MRT in data set [3] (intravenous injection, 3 mg/kg) was determined as 3.58 ± 0.3 h. In addition, the Cmax in data set [3] (setting [7]) worked out at 3310 ± 349 ng/mL. Also, in data set [3] (oral administration, 10 mg/kg), the AUC(0-t) was 8140 ± 2050 ng·h/mL, the bioavailability amounted to 48.8%, the half-life was 7.36 ± 4.2 h and the MRT worked out at 10 ± 6.5 h. For the same compound, the Tmax in data set [3] (oral administration, 10 mg/kg) amounted to 0.25 h. Moreover, the Cmax in data set [3] (setting [8]) worked out at 1150 ± 198 ng/mL.
Take `COc1cccc2c3c(oc12)CN(CC[C@H]1CC[C@H](NC(=O)N(C)C)CC1)CC3` [I-A12, 3-(trans-4-(2-(8-methoxy-3,4-dihydrobenzofuro[2,3-c]pyridin-2(1H)-yl)ethyl)cyclohexyl)-1,1-dimethylurea]: the Ki in data set [1] (read-out: Affinity Ki) turned out to be 436 nM. Besides, the Ki in data set [1] (setting [4]) is 372 nM. Further, the EC50 in data set [2] (setting [5]) was 8.13 nM. Also, in data set [2], the Emax is 108%. Further, the EC50 in data set [2] (setting [6]) was found to be 10.7 nM. In data set [3] (intravenous injection, 3 mg/kg), the Vd amounted to 9.14 ± 1.5 L/kg, the AUC(0-t) came to 1100 ± 215 ng·h/mL, the clearance is 45.4 ± 7.9 mL/min/kg and the half-life is 4.14 ± 0.7 h. In addition, the MRT in data set [3] (intravenous injection, 3 mg/kg) was 3.36 ± 0.2 h. Also, the Cmax in data set [3] (setting [7]) came to 824 ± 299 ng/mL. Also, in data set [3] (oral administration, 10 mg/kg), the AUC(0-t) worked out at 5660 ± 2660 ng·h/mL, the bioavailability was determined as 151 ± 71%, the half-life was 3.58 ± 0.5 h and the MRT was 4.42 ± 0.66 h. Besides, the Tmax in data set [3] (oral administration, 10 mg/kg) was 0.833 ± 1 h. Besides, the Cmax in data set [3] (setting [8]) was 963 ± 322 ng/mL.
